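96-well plates; 48 h exposure; 5 concentrations. Endpoints by linear interpolation between flanking doses. Not reached: highest tested concentration assigned. Abbreviation: GI50, concentration required for 50% inhibition of growth. TGI: total growth inhibition.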
What was measured:
Assay in all cases: NCI tumour cell line growth inhibition, 48 h
[1] = test system: SW-620 colon
[2] = test system: MDA-MB-435
[3] = test system: TK-10 renal
[4] = test system: M14 melanoma
[5] = test system: SF-268 CNS
[6] = test system: SF-295 CNS
[7] = test system: MDA-MB-231 breast
[8] = test system: MALME-3M melanoma
[9] = test system: SNB-75 CNS
[10] = test system: BT-549 breast
[11] = test system: HCT-15 colon
[12] = test system: SNB-19 CNS
[13] = test system: A549 NSCLC
[14] = test system: UO-31 renal
[15] = test system: HL-60(TB) leukemia
[16] = test system: 786-0 renal
[17] = test system: A498 renal
[18] = test system: T-47D breast
[19] = test system: NCI-H522 lung
[20] = test system: SK-MEL-5 melanoma
[21] = test system: HS 578T breast
[22] = test system: NCI-H460 lung
[23] = test system: NCI-H23 lung
[24] = test system: SF-539 CNS
[25] = test system: IGROV1 ovarian
[26] = test system: HOP-92 NSCLC
[27] = test system: CAKI-1 renal
[28] = test system: MCF7 breast
[29] = test system: DU-145 prostate
[30] = test system: HT29 colon
[31] = test system: SR leukemia
[32] = test system: ACHN renal
[33] = test system: RPMI-8226 leukemia
[34] = test system: KM12 colon
[35] = test system: UACC-62 melanoma
[36] = test system: CCRF-CEM leukemia
[37] = test system: HCT-116 colon
[38] = test system: OVCAR-4 ovarian
[39] = test system: LOX IMVI melanoma
[40] = test system: U251 CNS
[41] = test system: PC-3 prostate
[42] = test system: OVCAR-8 ovarian
[43] = test system: EKVX NSCLC
[44] = test system: SN12C renal
[45] = test system: COLO 205 colon
[46] = test system: UACC-257 melanoma
[47] = test system: NCI/ADR-RES ovarian
[48] = test system: SK-MEL-28 melanoma
[49] = test system: RXF 393 renal
[50] = test system: SK-MEL-2 melanoma
[51] = test system: OVCAR-5 ovarian
[52] = test system: HCC-2998 colon
[53] = test system: HOP-62 NSCLC
[54] = test system: K-562 leukemia
[55] = test system: OVCAR-3 ovarian
[56] = test system: MOLT-4 leukemia
[57] = test system: SK-OV-3 ovarian
[58] = test system: NCI-H226 lung

## CO[C@H]1/C=C/[C@@](C)(O)/C=C/C(=O)O[C@H](C)[C@@H](C)CC/C=C/1C
[1]
  GI50: 15.1 µM
  TGI: 35.7 µM
[2]
  GI50: 23.1 µM
  TGI: 83.1 µM
[3]
  GI50: 19.7 µM
  TGI: 88.4 µM
[4]
  GI50: 15.7 µM
  TGI: 43.3 µM
[5]
  GI50: 19.7 µM
  TGI: > 100 µM
[6]
  GI50: 16.5 µM
  TGI: 39.8 µM
[7]
  GI50: 14.5 µM
  TGI: 45.1 µM
[8]
  GI50: 13.1 µM
  TGI: 37.3 µM
[9]
  GI50: 17.5 µM
  TGI: 40.4 µM
[10]
  GI50: 19.8 µM
  TGI: 63.6 µM
[11]
  GI50: 7.35 µM
  TGI: 22.5 µM
[12]
  GI50: 21.9 µM
  TGI: 81.8 µM
[13]
  GI50: 23 µM
  TGI: > 100 µM
[14]
  GI50: 8.38 µM
  TGI: 21.1 µM
[15]
  GI50: 22.7 µM
  TGI: 54.5 µM
[16]
  GI50: 16.8 µM
  TGI: 34.3 µM
[17]
  GI50: 12 µM
  TGI: 32 µM
[18]
  GI50: 14.1 µM
  TGI: > 100 µM
[19]
  GI50: 15.2 µM
  TGI: 36.4 µM
[20]
  GI50: 14 µM
  TGI: 28.4 µM
[21]
  GI50: 23.9 µM
  TGI: > 100 µM
[22]
  GI50: 17.4 µM
  TGI: 48.6 µM
[23]
  GI50: 14.8 µM
  TGI: 32.4 µM
[24]
  GI50: 15.2 µM
  TGI: 31.3 µM
[25]
  GI50: 17.2 µM
  TGI: 62.3 µM
[26]
  GI50: 7.62 µM
  TGI: 26.1 µM
[27]
  GI50: 21.1 µM
  TGI: 69.7 µM
[28]
  GI50: 16.5 µM
  TGI: 56 µM
[29]
  GI50: 22.4 µM
  TGI: 71.8 µM
[30]
  GI50: 19.4 µM
  TGI: 48.7 µM
[31]
  GI50: 15 µM
  TGI: > 100 µM
[32]
  GI50: 18.7 µM
  TGI: 55.9 µM
[33]
  GI50: 15.5 µM
  TGI: 97.3 µM
[34]
  GI50: 15.8 µM
  TGI: 41.2 µM
[35]
  GI50: 13.8 µM
  TGI: 30 µM
[36]
  GI50: 10.1 µM
  TGI: > 100 µM
[37]
  GI50: 12.9 µM
  TGI: 26.2 µM
[38]
  GI50: 14.9 µM
  TGI: 76.3 µM
[39]
  GI50: 11.3 µM
  TGI: 26 µM
[40]
  GI50: 14.2 µM
  TGI: 40.6 µM
[41]
  GI50: 18.2 µM
  TGI: 53.7 µM
[42]
  GI50: 26.9 µM
  TGI: > 100 µM
[43]
  GI50: 15.7 µM
  TGI: 76.8 µM
[44]
  GI50: 17.6 µM
  TGI: 59.2 µM
[45]
  GI50: 20.6 µM
  TGI: 47.8 µM
[46]
  GI50: 26.7 µM
  TGI: 87.3 µM
[47]
  GI50: 15 µM
  TGI: 40.5 µM
[48]
  GI50: 16.9 µM
  TGI: 42.6 µM
[49]
  GI50: 11 µM
  TGI: 24.5 µM
[50]
  GI50: 23.6 µM
  TGI: 63.5 µM
[51]
  GI50: 17.7 µM
  TGI: 39.2 µM
[52]
  GI50: 15.6 µM
  TGI: 30.7 µM
[53]
  GI50: 16.3 µM
  TGI: 59.2 µM
[54]
  GI50: 15.2 µM
  TGI: > 100 µM
[55]
  GI50: 11.3 µM
  TGI: 29.4 µM
[56]
  GI50: 21.2 µM
  TGI: 98.6 µM

## O=C(/C=C/c1c(-c2ccccc2)[nH]c2ccccc12)S(=O)(=O)c1ccccc1
[1]
  GI50: 5.1 µM
  TGI: > 100 µM
[2]
  GI50: 1.73 µM
  TGI: 5.07 µM
[3]
  GI50: 74 µM
  TGI: > 100 µM
[4]
  GI50: 5.86 µM
  TGI: > 100 µM
[5]
  GI50: 6.24 µM
  TGI: > 100 µM
[6]
  GI50: 0.818 µM
  TGI: > 100 µM
[7]
  GI50: 16.6 µM
  TGI: > 100 µM
[8]
  GI50: 8.11 µM
  TGI: > 100 µM
[57]
  GI50: 23.5 µM
  TGI: > 100 µM
[9]
  GI50: 3.96 µM
  TGI: > 100 µM
[10]
  GI50: 5.33 µM
  TGI: > 100 µM
[11]
  GI50: 6.42 µM
  TGI: > 100 µM
[12]
  GI50: 35.7 µM
  TGI: > 100 µM
[13]
  GI50: 24.9 µM
  TGI: > 100 µM
[14]
  GI50: > 100 µM
  TGI: > 100 µM
[15]
  GI50: 5.6 µM
  TGI: 98.7 µM
[16]
  GI50: 52.6 µM
  TGI: > 100 µM
[17]
  GI50: 2.2 µM
  TGI: 87.8 µM
[18]
  GI50: 2.5 µM
  TGI: > 100 µM
[19]
  GI50: 6.11 µM
  TGI: > 100 µM
[20]
  GI50: 4.38 µM
  TGI: > 100 µM
[21]
  GI50: 10.1 µM
  TGI: > 100 µM
[22]
  GI50: 3.7 µM
  TGI: > 100 µM
[23]
  GI50: 13.6 µM
  TGI: > 100 µM
[24]
  GI50: 17.5 µM
  TGI: > 100 µM
[25]
  GI50: 24.3 µM
  TGI: > 100 µM
[26]
  GI50: 16.3 µM
  TGI: > 100 µM
[27]
  GI50: 6.42 µM
  TGI: > 100 µM
[28]
  GI50: 3.09 µM
  TGI: > 100 µM
[29]
  GI50: 7.54 µM
  TGI: > 100 µM
[30]
  GI50: 3.76 µM
  TGI: > 100 µM
[31]
  GI50: 2.42 µM
  TGI: 6.72 µM
[32]
  GI50: 39.8 µM
  TGI: > 100 µM
[33]
  GI50: 13.3 µM
  TGI: > 100 µM
[34]
  GI50: 2.03 µM
  TGI: > 100 µM
[36]
  GI50: 5.41 µM
  TGI: > 100 µM
[37]
  GI50: 4.81 µM
  TGI: > 100 µM
[38]
  GI50: 4.48 µM
  TGI: > 100 µM
[39]
  GI50: > 100 µM
  TGI: > 100 µM
[40]
  GI50: 40.3 µM
  TGI: > 100 µM
[41]
  GI50: 8.15 µM
  TGI: > 100 µM
[42]
  GI50: 53.6 µM
  TGI: > 100 µM
[43]
  GI50: 4.37 µM
  TGI: > 100 µM
[44]
  GI50: > 100 µM
  TGI: > 100 µM
[58]
  GI50: > 100 µM
  TGI: > 100 µM
[45]
  GI50: 6 µM
  TGI: > 100 µM
[46]
  GI50: > 100 µM
  TGI: > 100 µM
[47]
  GI50: 3.19 µM
  TGI: 53.6 µM
[48]
  GI50: 27.1 µM
  TGI: > 100 µM
[49]
  GI50: 9.34 µM
  TGI: 67.1 µM
[50]
  GI50: 78.6 µM
  TGI: > 100 µM
[51]
  GI50: > 100 µM
  TGI: > 100 µM
[52]
  GI50: 17.5 µM
  TGI: > 100 µM
[53]
  GI50: 29.9 µM
  TGI: > 100 µM
[54]
  GI50: 3.7 µM
  TGI: > 100 µM
[55]
  GI50: 4.23 µM
  TGI: > 100 µM
[56]
  GI50: 4.78 µM
  TGI: > 100 µM

From PubChem BioAssay (NCI)
